Among the data in ChEMBL document CHEMBL1139292, “Tetrahydroisoquinoline amide substituted phenyl pyrazoles as selective Bcl-2 inhibitors” (Bioorg Med Chem Lett, 2009) are IC50, inhibition and Activity values, retold here.

Calls of active or inactive are those of the source. The calls are words filed in the database; no cut-off is given here.

For orientation: IC50 means the point on the concentration scale where inhibition reaches its midpoint. A higher IC50 goes with lower potency. As a reminder, the inhibition is the percentage by which the read-out fell short of the control. High values mean a response far below the control, low ones a response near the control.

Test [1] has as its target T1, Apoptosis regulator Bcl-2 (Homo sapiens, UniProt P10415). Description: Inhibition of GST fused Bcl-2 binding to biotinylated 16 mer Bak-BH3 peptide by HTRF-LANCE assay. (In general: Time-resolved FRET reads energy transfer from a long-lived donor to a nearby acceptor.)
The target of test [2] is T1, Apoptosis regulator Bcl-2. Nature of the test: Inhibition of GST fused Bcl-2 binding to biotinylated 26 mer Bak-BH3 peptide by HTRF-LANCE assay.
Test [3] deals with Bcl-2-like protein 1 (Bcl-xL) (Homo sapiens) (UniProt Q07817). Nature of the test: Inhibition of GST fused Bcl-xL binding to biotinylated 26 mer Bak-BH3 peptide at 10 uM by HTRF-LANCE assay.
Test [4] has the same target. Nature of the test: Inhibition of GST fused Bcl-xL binding to biotinylated 26 mer Bak-BH3 peptide at 30 uM by HTRF-LANCE assay.
Test [5] concerns the target T1, Apoptosis regulator Bcl-2. Nature of the test: Inhibition of GST fused Bcl-2 binding to biotinylated 26 mer Bak-BH3 peptide at 10 uM by HTRF-LANCE assay.
In test [6] the target is Bcl-2-like protein 1 (Bcl-xL) (Homo sapiens) (UniProt Q07817). Description: Inhibition of GST fused Bcl-xL binding to biotinylated 16 mer Bak-BH3 peptide at 30 uM by HTRF-LANCE assay.
Test [7] has as its target T1, Apoptosis regulator Bcl-2. Particulars: 30 uM.
Description: Inhibition of GST fused Bcl-2 binding to biotinylated 16 mer Bak-BH3 peptide at 30 uM by HTRF-LANCE assay
The target in test [8] is Bcl-2-like protein 1 (Bcl-xL) (Homo sapiens) (UniProt Q07817). Nature of the test: Inhibition of GST fused Bcl-xL binding to biotinylated 16 mer Bak-BH3 peptide at 33 uM by HTRF-LANCE assay.

T1 sequence (P10415 whole entry, the tested form may be a part): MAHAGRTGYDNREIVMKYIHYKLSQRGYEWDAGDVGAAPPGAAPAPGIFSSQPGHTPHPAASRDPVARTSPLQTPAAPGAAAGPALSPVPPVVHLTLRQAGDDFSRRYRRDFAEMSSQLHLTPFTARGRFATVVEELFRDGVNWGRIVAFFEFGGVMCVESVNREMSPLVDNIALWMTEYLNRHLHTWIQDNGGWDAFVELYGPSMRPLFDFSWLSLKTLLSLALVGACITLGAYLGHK
Sequence of Bcl-2-like protein 1 (Bcl-xL) (Homo sapiens) (Q07817 whole entry, looked up, the tested form may be a part): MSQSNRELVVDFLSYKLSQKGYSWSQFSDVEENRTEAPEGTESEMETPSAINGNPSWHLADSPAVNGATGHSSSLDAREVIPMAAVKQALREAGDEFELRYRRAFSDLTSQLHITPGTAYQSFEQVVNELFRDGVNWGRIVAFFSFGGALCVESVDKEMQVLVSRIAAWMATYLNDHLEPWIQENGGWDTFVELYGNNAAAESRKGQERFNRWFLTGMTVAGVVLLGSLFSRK

For `Cc1cc(C(=O)N(c2ccccc2)c2ccccc2)nn1-c1ccccc1C(=O)N1Cc2ccccc2C[C@H]1CN(C)C`, the IC50 in test [1] was found to be 150 nM.
For `CCCCN(CCCC)C(=O)c1cc(C)n(-c2ccc(NC(=O)COc3ccccc3)cc2C(=O)N2CCc3ccccc3C2)n1`, the IC50 in test [2] worked out at 510 nM.
Still for that read-out and setting: in the case of `CCCCN(CCCC)C(=O)c1nn(-c2ccc(N)cc2C(=O)N2Cc3ccccc3C[C@H]2CN)c(C)c1Cl` it was 380 nM.
As to `CC(=O)NC[C@@H]1Cc2ccccc2CN1C(=O)c1ccccc1-n1nc(C(=O)N(c2ccccc2)c2ccccc2)cc1C`, in test [1], the IC50 came out at 730 nM.
Still for that read-out and setting: in the case of `COC[C@@H]1Cc2ccccc2CN1C(=O)c1ccccc1-n1nc(C(=O)N(c2ccccc2)c2ccccc2)cc1C` it was 160 nM; in that of `CNC[C@@H]1Cc2ccccc2CN1C(=O)c1ccccc1-n1nc(C(=O)N(c2ccccc2)c2ccccc2)cc1C`, 140 nM.
As to `CCCCN(CCCC)C(=O)c1nn(-c2ccccc2C(=O)N2Cc3ccccc3C[C@H]2CN)c(C)c1Cl`, the IC50 worked out at 160 nM in test [2] and 20 nM in test [1].
In test [3], `CCCCN(CCCC)C(=O)c1nn(-c2ccc(NS(=O)(=O)Cc3ccccc3)cc2C(=O)N2CCc3ccccc3C2)c(C)c1Cl` showed an inhibition of 19%.
With `CCCCN(CCCC)C(=O)c1nn(-c2ccccc2C(=O)N2Cc3ccccc3C[C@H]2CO)c(C)c1Cl`, the values for the IC50 in test [2] and in test [1] were 780 nM and 100 nM, respectively.
In turn, `Cc1cc(C(=O)N(c2ccccc2)c2ccccc2)nn1-c1ccccc1C(=O)N1Cc2ccccc2C[C@H]1CO` showed an IC50 in test [1] of 190 nM.
As for `CCOC(=O)[C@@H]1Cc2ccccc2CN1C(=O)c1ccccc1-n1nc(C(=O)N(c2ccccc2)c2ccccc2)cc1C`, the IC50 in test [1] stood at 5610 nM.
Still for that read-out and setting: in the case of `Cc1cc(C(=O)Nc2ccccc2)nn1-c1ccccc1C(=O)N1CCc2ccccc2C1` it was 50000 nM.
For `Cc1cc(C(=O)N(C)Cc2ccccc2)nn1-c1ccccc1C(=O)N1CCc2ccccc2C1`, the result in test [1] was inactive.
Turning to `CCCCN(CCCC)C(=O)c1cc(C)n(-c2ccc(OCC(=O)O)cc2C(=O)N2CCc3ccccc3C2)n1`, the IC50 in test [2] is 130 nM; in test [1], 10 nM.
Regarding `CCCCN(CCCC)C(=O)c1cc(C)n(-c2ccc(NC(=O)CSc3ccccc3)cc2C(=O)N2CCc3ccccc3C2)n1`, in test [2], the IC50 came to 600 nM.
In the case of `CCCCN(CCCC)C(=O)c1cc(C)n(-c2ccc(OCC(=O)c3ccccc3)cc2C(=O)N2CCc3ccccc3C2)n1`, the IC50 in test [2] turned out to be 330 nM; in test [1] it was 20 nM.
In the case of `Cc1c(Cl)c(C(=O)N(c2ccccc2)c2ccccc2)nn1-c1ccccc1C(=O)N1Cc2ccccc2C[C@H]1CN`, the IC50 was determined as 100 nM in test [2] and 30 nM in test [1]. This compound also displayed an inhibition in test [4] of 28%.
For `Cc1c(Br)c(C(=O)N(c2ccccc2)c2ccccc2)nn1-c1ccccc1C(=O)N1Cc2ccccc2C[C@H]1CO`, the IC50 in test [2] turned out to be 210 nM; in test [1] it was 40 nM. This compound also yielded an inhibition in test [4] of 9%.
For `Cc1c(Cl)c(C(=O)N(c2ccccc2)c2ccccc2)nn1-c1ccccc1C(=O)N1Cc2ccccc2C[C@H]1CO` the same measures were 480 nM, 50 nM and 29%.
Take `COC(=O)C[C@@H]1Cc2ccccc2CN1C(=O)c1ccccc1-n1nc(C(=O)N(c2ccccc2)c2ccccc2)cc1C`: the IC50 in test [1] stood at 280 nM.
For the compound `CCN(CC)C(=O)c1nn(-c2ccccc2C(=O)N2Cc3ccccc3C[C@H]2CO)c(C)c1Br`, the IC50 in test [2] came out at 17300 nM; in test [1], 3670 nM. Moreover, the inhibition in test [3] came out at 14%.
As to `Cc1c(Cl)c(C(=O)N(CC(F)(F)F)CC(F)(F)F)nn1-c1ccccc1C(=O)N1Cc2ccccc2C[C@H]1CO`, the values for the inhibition in test [5], in test [4] and in test [6] were 6%, 4% and 13%, respectively.
For the compound `CCCCN(CCCC)C(=O)c1nn(-c2ccc(NC(=O)Cc3ccccc3)cc2C(=O)N2CCc3ccccc3C2)c(C)c1Cl`, the IC50 was determined as 270 nM in test [2] and 40 nM in test [1].
In test [1], `Cc1cc(C(=O)N(c2ccccc2)c2ccccc2)nn1-c1ccccc1C(=O)N1Cc2ccccc2C[C@H]1CN` returned an IC50 of 110 nM.
With `Cc1cc(C(=O)N(c2ccccc2)C2CCCCC2)nn1-c1ccccc1C(=O)N1CCc2ccccc2C1`, the half-inhibitory concentration (IC50) in test [1] is 1400 nM.
`Cc1cc(C(=O)N(c2ccccc2)c2ccccc2)nn1-c1ccccc1C(=O)N1Cc2ccccc2C[C@H]1C`: in test [1], the IC50 stood at 110 nM.
For `Cc1cc(C(=O)N(c2ccccc2)c2ccccc2)nn1-c1ccccc1C(=O)N1Cc2ccccc2C[C@@H]1C`, the values for the inhibition in test [7] and in test [6] were 27% and 4%, respectively.
With `Cc1cc(C(=O)N2CCc3ccccc3C2)nn1-c1ccccc1C(=O)N1CCc2ccccc2C1`, the IC50 in test [1] amounted to 1500 nM.
`Cc1cc(C(=O)N(c2ccccc2)c2ccccc2)nn1-c1ccccc1C(=O)N1Cc2ccccc2C[C@H]1CNS(C)(=O)=O` returned an inhibition in test [8] of 40%. The IC50 in test [1] was 1050 nM.
As for `CCCCN(CCCC)C(=O)c1nn(-c2ccc(NC(=O)COc3ccccc3)cc2C(=O)N2CCc3ccccc3C2)c(C)c1Cl`, the IC50 was found to be 130 nM in test [2] and 40 nM in test [1].
